Ends that are not written are not given here. * marks the point of attachment. Myristoyl = CCCCCCCCCCCCCC(=O)*

Experiment [1] deals with cancer stem cell markers (CSV, LSD1p, PKC-θ and PDL1). Put plainly: Expression of cancer stem cell markers in MDA-MB-231 xenograft cells (confocal microscopy, TNFI/TCFI). Format: in vivo, Balb-c nude mice. Conditions: importinib4759 40 mg/kg, docetaxel 4 mg/kg. On the procedure: The effect of Importinib4759 on the expression of cancer stem cell markers in MDA-MB-231 xenograft breast cancer cells from Balb-c nude mice was evaluated using confocal laser scanning microscopy.
MDA-MB-231 xenograft breast cancer cells from Balb-c nude mice were treated and prepared as per the method of Example 7. Test compounds included control (saline), docetaxel (4 mg/kg), importinib4759 (40 mg/kg; synthesized in accordance with Example 1) or a combination of importinib4759 (40 mg/kg) and docetaxel (4 mg/kg). The single cell suspensions were fixed with 3.7% formaldehyde and permeabilized with 2% Triton-X-100 and were then probed with primary mouse antibodies to CSV, primary goat antibodies to PDL1 and primary rabbit antibodies to phosphorylated LSD1 (LSD1p; lysine-specific histone demethylase 1A) or PKC-θ followed by the corresponding secondary antibody conjugated to anti mouse Alexa-Fluor 568, anti-goat Alexa-Fluor 633 or anti-rabbit Alexa-Fluor 488. The cell nucleus was stained with anti-fade DAPI. TNFI (Total Nuclear Fluorescence Intensity) or TCFI (Total Cytoplasmic Fluorescence Intensity) values were calculated for at least 20 individual cells per sample. Data shown represent the mean±SE grouped into time point of collection.

Experiment [2] has as its system CAF markers (FAP, LSD1 and CCL2). Put plainly: Expression of CAF markers in MDA-MB-231 xenograft cells (confocal microscopy, TNFI/TCFI). Format: in vivo, Balb-c nude mice. The conditions noted are these: importinib4759 40 mg/kg, docetaxel 4 mg/kg. How it is done: (§1) The effect of Importinib4759 on the expression of cancer associated fibroblast (CAF) and macrophage in MDA-MB-231 xenograft breast cancer cells from Balb-c nude mice was evaluated using confocal laser scanning microscopy. MDA-MB-231 xenograft breast cancer cells from Balb-c nude mice were treated and prepared as per the method of Example 7. Test compounds included control (saline), docetaxel (4 mg/kg), importinib4759 (40 mg/kg; synthesized in accordance with Example 1) or a combination of importinib4759 (40 mg/kg) and docetaxel (4 mg/kg). The single cell suspensions were fixed with 3.7% formaldehyde and permeabilized with 2% Triton-X-100 and were then probed with a set of CAF signature antibodies [primary mouse antibodies to FAP (fibroblast activation protein), primary goat antibodies to CCL2 (chemokine (C-C motif) ligand 2) and primary rabbit antibodies to LSD1 (lysine-specific histone demethylase 1A; a target of PKC-θ)] or M1 macrophage markers [primary mouse antibodies to CCR[…] chemokine receptor type 7), primary goat antibodies to CD38 (cluster of differentiation 38) and primary rabbit antibodies to LSD1p (a target of PKC-θ)], followed by the corresponding secondary antibody conjugated to anti mouse Alexa-Fluor 568, anti-goat Alexa-Fluor 633 or anti-rabbit Alexa-Fluor 488. […] TNFI or TCFI values were calculated for at least 20 individual cells per sample. […]

Experiment [3] relates to M1 macrophage markers (LSD1p, CCR7 and CD38). Description: Expression of M1 macrophage markers in MDA-MB-231 xenograft cells (confocal microscopy, TNFI/TCFI). Conditions: importinib4759 40 mg/kg, docetaxel 4 mg/kg. Format: in vivo, Balb-c nude mice. On the procedure:
as §1

In experiment [4] the target is T1, PKC-θ (Homo sapiens, UniProt Q04759).
T1 construct: endogenous in cells; host or cells: MCF7
T1 sequence (Q04759 whole entry): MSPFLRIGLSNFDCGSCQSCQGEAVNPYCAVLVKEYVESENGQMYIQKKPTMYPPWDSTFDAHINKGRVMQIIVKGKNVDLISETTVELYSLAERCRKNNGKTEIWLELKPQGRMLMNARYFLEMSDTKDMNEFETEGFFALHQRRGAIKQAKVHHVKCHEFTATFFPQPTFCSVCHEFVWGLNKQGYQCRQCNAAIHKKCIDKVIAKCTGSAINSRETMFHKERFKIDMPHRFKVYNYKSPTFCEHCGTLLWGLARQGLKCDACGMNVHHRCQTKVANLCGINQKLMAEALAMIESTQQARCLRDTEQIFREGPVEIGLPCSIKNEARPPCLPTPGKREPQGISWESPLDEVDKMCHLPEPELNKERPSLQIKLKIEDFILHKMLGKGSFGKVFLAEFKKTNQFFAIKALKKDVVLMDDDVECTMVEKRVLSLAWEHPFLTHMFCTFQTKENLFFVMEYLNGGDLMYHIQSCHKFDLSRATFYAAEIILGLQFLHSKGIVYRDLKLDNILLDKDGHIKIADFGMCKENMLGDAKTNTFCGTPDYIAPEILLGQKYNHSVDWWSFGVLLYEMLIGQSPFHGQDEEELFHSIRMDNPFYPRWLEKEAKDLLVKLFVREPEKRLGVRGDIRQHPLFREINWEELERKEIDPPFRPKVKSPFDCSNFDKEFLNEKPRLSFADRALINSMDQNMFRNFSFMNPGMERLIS
Put plainly: Nuclear translocation of PKC-θ in PMA-stimulated MCF7 cells (immunofluorescence, Fn/c). Format: cell-based. The conditions noted are these: 50 μM peptide 24 hr, then PMA 0.65 ng/mL 60 hr, N-myristoylated peptides, p<0.0001 relative to control. On the procedure: MCF7 cells were pre-seeded overnight on sterile coverslips in 12 well plates with 1 mL of completed Dulbecco's modified eagle medium (DMEM) before incubating with 50 μM of importinib4759 (synthesized in accordance with Example 1) and importinib4759_O1 (synthesized in accordance with Example 1) for 24 hr. Test peptides were not removed when MCF7 cells were stimulated with 0.65 ng/mL of phorbol 12-myristate 13-acetate (PMA) for 60 hr. Diethylpyrocarbonate (DEPC)-water was used for control (test peptides were dissolved in sterile DEPC-water). After wash with Dulbecco's phosphate buffered saline (DPBS) twice, samples on coverslips were fixed with 4% paraformaldehyde for 10 minutes and stained with PKC-θ (Cat. SC-212), PKC-θ-Phosphor-T538, PKC-β2, PKC-α, Importin α, or Importin 8 primary Antibody respectively and conjugated Alexa-488 secondary Antibody. Cell nucleus was stained with anti-fade 2-(4-amidinophenyl)-6-indolecarbamidine dihydrochloride (DAPI). When samples were dried overnight, Nikon fluorescence microscopy was used to take photos. ImageJ software was used for densimetric analysis. Fn/c was calculated using the formula: Fn/c=(nuclear density-background density)/(cytoplasmic density-background density).

Experiment [5] relates to MCF7 cells. Description: CD44hiCD24lo cancer stem cell formation in MCF-IM model (FACS). Format: cell-based, human. The conditions noted are these: importinib4759 5004 and 100 μM, importinib4759_O1 2504 and 50 μM, 24 hr before PMA 60 hr, p=0.0079 relative to control. How it is done:
(§2) 5×10^4 MCF7 cells were seeded with 1 mL of complete DMEM in 12 well plates overnight, then importinib4759 (5004 and 100 μM; synthesized in accordance with Example 1) or importinib4759_O1 (2504 and 50 μM; synthesized in accordance with Example 1) were used to treat cells for 24 hr before stimulation with PMA for 60 hr. Samples were harvested by trypsinization followed by washing with DPBS containing 2% heat inactivated foetal bovine serum (HI-FBS). FACS staining were performed using anti-human CD44-APC, anti-human CD24-PE, Hoechst, and anti-human EpCAM antibody cocktails. Data was collected from BD FACSLSR-II flow cytometer. Treestar FlowJo was used for data analysis.

Experiment [6] deals with MDA-MB-231 cells. Description: CD44hiCD24lo cancer stem cells in MDA-MB-231 model (FACS). Format: cell-based, human. The conditions noted are these: 50 μM or 100 μM importinib4759, 48 hr, p<0.0001 relative to control. On the procedure: as §2, with “5×10^4 MDA-MB-231” for “5×10^4 MCF7”, “for 48” for “for 24”, “before samples” for “before stimulation with PMA for 60 hr. Samples”, “2% HI-FBS.” for “2% heat inactivated foetal bovine serum (HI-FBS).”, “staining was” for “staining were”

The subject of experiment [7] is MDA-MB-231 xenograft. Description: Balb/c-nude MDA-MB-231 xenograft breast cancer model: tumor volume and cancer stem cell proportion. It counts as in vivo, balb/c-nude mice. How it is done: A Balb/c-nude MDA-MB-231 xenograft breast cancer model was utilized to determine the effect of the importinib peptides alone and in combination with the chemotherapeutic, docetaxel in comparison to a randomized peptide control.
Five week old balb/c-nude mice (n=5 per test compound) were injected with MDA-MB-231 human breast carcinoma cell suspensions (2×10^6 cells in 25 μL PBS mixed with 25 μL of BD Matrigel Matrix) subcutaneously into the right mammary gland. Test compounds in a saline vehicle [4 mg/kg docetaxel; 8 mg/kg, 40 mg/kg and 60 mg/kg importinib4759 or importinib4759_O1 (synthesized in accordance with Example 1); 4 mg/kg docetaxel with 8 mg/kg importinib4759 or importinib4759_O1; 4 mg/kg docetaxel with 40 mg/kg importinib4759 or importinib4759_O1; 4 mg/kg docetaxel with 60 mg/kg importinib4759 or importinib4759_O1; or randomized peptide control] were injected intraperitoneally. Tumor volume was assessed using calipers daily over a period of five weeks following treatment. Animals were sacrificed after the five week period. Tumor grafts were removed using resection and processed into single cell suspensions. The percentage of cancer stem cells was determined using FACS analysis. FACS staining was performed using anti-human CD44-APC, anti-human CD24-PE, Hoechst, and anti-human EpCAM antibody cocktails. Data was collected from BD FACSLSR-II flow cytometer. Treestar FlowJo was used for data analysis. Significance was determined using a one-way ANOVA or Mann-Whitney T-test.

Experiment [8] concerns the target T1, PKC-θ. Description: Nuclear localization of PKC-θ (PKC-θ-phosphor-T538 antibody) in MCF7 cells treated with peptide inhibitors of other PKC isoforms. It counts as cell-based. Conditions: 50 μM peptide inhibitor 24 hr, PMA 0.65 ng/mL 60 hr, N-myristoylated. On the procedure:
nPKC-β1, nPKC-ε and nPKC-δ peptide inhibitors were designed based on the nuclear localization signal of PKC-β1, PKC-ε and PKC-δ respectively. These peptides were synthesized and N-myristoylated using the method of Example 1.
MCF7 cells were pre-seeded overnight on sterile coverslips in 12 well plates with 1 mL of completed DMEM before inhibiting with 50 μM of nPKC-β1, nPKC-ε or nPKC-δ peptide inhibitor respectively for 24 hr. Inhibitors were not removed when MCF7 cells were stimulated with 0.65 ng/mL of PMA for 60 hr. DEPC-water was used for control (test peptides were dissolved in sterile DEPC-water). After washing with DPBS twice, samples on coverslips were fixed with 4% paraformaldehyde for 10 minutes and stained with PKC-θ-phosphor-T538 primary Antibody and conjugated Alexa-488 secondary Antibody. Cell nucleus was stained with anti-fade DAPI. When samples were dried overnight, Nikon fluorescence microscopy was used to take photos. ImageJ software was used for densimetric analysis. Fn/c was calculated using the formula: Fn/c=(nuclear density-background density)/(cytoplasmic density-background density).

With `CC(=O)O[C@@]12CO[C@@H]1C[C@H](O)[C@@]1(C)C(=O)[C@H](O)C3=C(C)[C@@H](OC(=O)[C@H](O)[C@@H](NC(=O)OC(C)(C)C)c4ccccc4)C[C@@](O)([C@@H](OC(=O)c4ccccc4)[C@H]21)C3(C)C` [docetaxel, reference compound], the “expression of cancer stem cell markers (CSV, LSD1p, PKC-θ, PDL1)” value in experiment [1] was “increased expression of cancer stem cell markers”. Further, in experiment [2], the “expression of CAF markers (FAP, LSD1np, CCL2)” value is “significantly increased the expression of CAF markers”. In experiment [3], the “expression of M1 macrophage markers (LSD1p, CCR7, CD38; docetaxel result stated for CCR7 and CD38)” value is given as “unaffected”.

Turning to “RKEIDPPFRPKVK-OH (Myristoyl-RKEIDPPFRPKVK-OH; SMILES CCCCCCCCCCCCCC(=O)N[C@@H](CCCNC(=N)N)C(=O)N[C@@H](CCCCN)C(=O)N[C@@H](CCC(=O)O)C(=O)N[C@H](C(=O)N[C@@H](CC(=O)O)C(=O)N1CCC[C@H]1C(=O)N1CCC[C@H]1C(=O)N[C@@H](Cc1ccccc1)C(=O)N[C@@H](CCCNC(=N)N)C(=O)N1CCC[C@H]1C(=O)N[C@@H](CCCCN)C(=O)N[C@H](C(=O)N[C@@H](CCCCN)C(=O)O)C(C)C)[C@@H](C)CC) [Importinib4759, tested N-myristoylated]”, the “blocking of nuclear PKC-θ (nuclear translocation)” value in experiment [4] was “capable of blocking nuclear PKC-θ”. For the same compound, the “cancer stem cell (CD44hiCD24lo) formation” value in experiment [5] is given as “inhibited”. Besides, in experiment [6], the “reduction of CD44hiCD24lo cancer stem cells” value is listed as “Significant reduction of cancer stem cells”. The “cancer stem cell (CD44highCD24low) population in tumor grafts” value in experiment [7] (FACS of resected tumor grafts after five weeks) is “significantly abrogating the cancer stem cell population”. The “tumor volume in comparison to the control or docetaxel treatment alone” value in experiment [7] (intraperitoneal, peptide 8, 40 and 60 mg/kg, docetaxel 4 mg/kg, five weeks) is listed as “abrogating tumor volume”. Also, the “tumor volume over time” value in experiment [7] (intraperitoneal, peptide 8, 40 and 60 mg/kg, docetaxel 4 mg/kg, five weeks, n=5) is reported as “significantly reduced tumor volume over time”. In addition, the “expression of cancer stem cell markers (CSV, LSD1p, PKC-θ, PDL1)” value in experiment [1] is reported as “significantly abrogated expression of cancer stem cell markers”. Besides, the “expression of CAF markers (FAP, LSD1np, CCL2)” value in experiment [2] was “abrogated expression of CAF markers”. For the same compound, the “expression of M1 macrophage markers (LSD1p, CCR7, CD38; docetaxel result stated for CCR7 and CD38)” value in experiment [3] is recorded as “augmented”.

On to “RKEIQPPYKPKAR (Myristoyl-RKEIQPPYKPKAR) [nPKC-β1]”, for which the “effect on nuclear localization of PKC-θ” value in experiment [8] is given as “had no effect”.

Consider “KKIKPPFKPRIKTKR (Myristoyl-KKIKPPFKPRIKTKR) [nPKC-ε]”, for which the “effect on nuclear localization of PKC-θ” value in experiment [8] is listed as “had no effect”.

Take KRRLEPPFRPKVK [nPKC-δ]: in experiment [8], the “effect on nuclear localization of PKC-θ” value is listed as “had no effect”.

(Values after patent US10487115B2, “Proteinaceous compounds and uses therefor” (UNIVERSITY OF CANBERRA, priority 2016, dated 2019).)
